Assays:
Plasmodium falciparum [1] = assay: NOVARTIS: Inhibition of Plasmodium falciparum 3D7 (drug-susceptible) proliferation in erythrocyte-based infection assay; assay type: functional, organism-based; conditions: Plasmodium falciparum, 3D7
Plasmodium falciparum [2] = assay: NOVARTIS: Inhibition of Plasmodium falciparum W2 (drug-resistant) proliferation in erythrocyte-based infection assay; assay type: functional, organism-based; conditions: Plasmodium falciparum, W2; read-out: EC50
[3] = NOVARTIS: Cytotoxicity against human hepatocellular carcinoma cell line (Huh7); assay type: toxicity, cell-based, Huh-7; conditions: Huh7 cells (hepatocellular carcinoma cell line)

Structure (SMILES)	EC50 (Plasmodium falciparum [1]) [nM]	EC50 (Plasmodium falciparum [2]) [nM]	CC50 [3] [nM]
COc1ccc(OCC(=O)Nc2cccc(-c3nc4ncccc4o3)c2)cc1	1470	935	> 100000
CCOc1ccc2nc(SCc3nc(N)nc(N4CCOCC4)n3)sc2c1	> 627	> 1250	> 10000
COc1cccc(CNC(=O)[C@@H]2CNC[C@H]2c2ccc(C(F)(F)F)cc2)c1	108	77.5	23800
CCSc1ncnc2scc(-c3ccccc3)c12	> 1510	1710	> 10000
Cc1ccc(NC(=O)C2c3ccccc3C(=O)N(CC(C)C)C2c2cccs2)c(Cl)c1 (centres undefined)	305	191	> 100000
CC(C)(C)CC(C)(C)c1ccc(O)c(CN2CCN(CCC#N)CC2)c1	1290	272	> 100000
Cc1ccc2nc(Cl)c3cc(C(=O)NCCN4CCN(C)CC4)sc3c2c1	7770	11700	85900
CCC(c1nc2ccccc2c(=O)n1-c1ccccc1OC)N(CCc1ccccc1)C(=O)c1ccc(C)cc1 (centres undefined)	418	174	> 6690
CC1CCCN(c2ccc(C(=O)NC3CC3)cc2[N+](=O)[O-])C1 (centres undefined)	559	1460	> 100000
O=C(Nc1ccc(O)cc1)c1cccc(S(=O)(=O)N2CCCCC2)c1	6910	621	> 100000
CN1CCN(c2nc(NCCNc3ccc([N+](=O)[O-])cc3)c3ccccc3n2)CC1	537	424	19000
COc1ccc(Nc2c3c(nc4ccc(NC(=O)c5cc(=O)c6ccccc6o5)cc24)CCCC3)cc1OC	303	558	11100
COc1cccc(-c2ccc(O)c(CN3CCC(C)CC3)c2)n1	337	129	75000
CN(C)CCNCc1cc(-c2ccnc3cc(Cl)ccc23)ccc1O	120	152	45600
CCOC(=O)c1cnc2c(C)cc(C)cc2c1Nc1ccc(C(C)=O)cc1	749	675	> 100000
Cc1cccc(-n2c(-c3ccccc3)nc3ccc(-c4ccc5nc(-c6ccccc6)n(-c6cccc(C)c6)c(=O)c5c4)cc3c2=O)c1	> 1200	> 939	> 10000
CCC(Oc1ccc(C(C)(C)CC)cc1C(C)(C)CC)C(=O)Nc1ccc(Cl)c([N+](=O)[O-])c1 (centres undefined)	275	349	> 10000
CCCc1ccc(C(=O)NC(=O)c2ccccc2O)cc1	193	325	16500
CC(C)CNc1nc(NCCCN2CCCCC2C)ncc1C(=O)NCc1ccccc1 (centres undefined)	236	859	> 10000
Cc1ccccc1Cn1c(C)c[n+]2ccsc12	1280	113	> 10000
CC(=O)Nc1ccc(C(C)=NNc2nc(Nc3cc(C)ccc3C)nc(N3CCOCC3)n2)cc1	> 1250	2060	> 10000
COc1ccc(NC(=O)C=Cc2ccccc2Cl)cc1	972	577	> 100000
c1ccc(-c2cc(N3CCN(c4ccccn4)CC3)nc(-c3ccccn3)n2)nc1	72.9	76.7	3030

Structure (SMILES)	EC50 (Plasmodium falciparum [1]) [nM]	EC50 (Plasmodium falciparum [2]) [nM]	CC50 [3] [nM]
CC(=O)Nc1nc(-c2ccc(F)cc2)cs1	> 12500	3520	> 100000
COc1cc(OC)cc(C(=O)NCc2n[nH]c(=S)n2-c2ccc(Br)cc2)c1	325	252	> 100000
COc1ccccc1N1CCN(c2ccc(NC(=O)c3ccc(F)cc3)cc2C(=O)N2CCCC2)CC1	> 1250	149	> 10000
CCCc1c(C)nc2ccc(C)cc2c1O	3220	2960	> 100000
CN(C)CCNC(=O)c1ccc(-c2cncc(NCc3ccc(Cl)c(Cl)c3)c2)cc1	640	284	10300
COc1ccc(C2Sc3ccccc3N=C3C2=C(O)c2ccccc23)cc1 (centres undefined)	238	174	> 100000
CCN(CC)C(=O)c1ccc2c(=O)n(Cc3cccc(Br)c3)c(=S)[nH]c2c1	> 1250	1020	> 10000
COc1cccc(CCN2Cc3ccc(C(=O)NC(C)C)cc3N=C2c2cccnc2)c1	17.1	> 42.3	> 10000
CCCCNC(=S)N(Cc1cccs1)Cc1cc2cc(C)ccc2[nH]c1=O	1020	295	> 10000
Oc1cccc2ccc[n+](CC(O)Cn3c4ccccc4c4ccccc43)c12 (centres undefined)	199	651	49200
Cc1cc(Nc2ccc(Cl)c(Cl)c2)n2nc(C)nc2n1	123	112	> 100000
O=[N+]([O-])c1ccc(-n2cccc2C=NNc2ncnc3sc4c(c23)CCCC4)cc1	2780	1410	7450
Cc1nc(NN=Cc2ccccc2O)cc(N2CCCCC2)n1	1080	237	> 10000
C=CC1CN2CCC1CC2[C@@H](OC(=O)/C=C/c1ccc(Cl)cc1)c1ccnc2ccc(OC)cc12 (some centres undefined)	272	252	> 10000
CC(C)N(C(=O)Cn1ccc(=N)c2ccccc21)C(C)C	1240	1650	> 100000
C=CC1CN2CCC1CC2[C@H](O)c1ccnc2ccc(OC)cc12 (some centres undefined)	11.2	45.3	56500
Cc1c2ccccc2cc(Cc2ccccc2)[n+]1C	488	369	> 100000
COc1ccc(C2=C(c3ccc(OC)cc3)C3(c4ccccc4)C(=O)C2(c2ccccc2)C2C(=O)N(c4ccc(C)c(Br)c4)C(=O)C23)cc1 (centres undefined)	734	901	> 10000
O=c1c2ccccc2[nH]c2cc(Cl)ccc12	95.5	178	> 10000
CCOC(=O)c1sc(Nc2c(Cl)cc(S(N)(=O)=O)cc2Cl)nc1C	> 1250	411	> 10000
CCC(=O)Nc1cc(NC(=O)CSc2nc(C)c(CC)c(O)n2)ccc1C	> 1250	1.61	3920
O=C(Nc1ccc(-c2nc3ccc(NC(=O)c4cccc5ccccc45)cc3[nH]2)cc1)c1cccc2ccccc12	1430	1920	> 10000
COc1cccc2c1C(=O)C1C(O)=C3C(=C(O)C1C2=O)CC(O)(C(C)=NN=C1CC(C)(C)N(O)C(C)(C)C1)CC3OC1CC(C)(N)C(O)CO1 (centres undefined)	416	337	> 10000

Structure (SMILES)	EC50 (Plasmodium falciparum [1]) [nM]	EC50 (Plasmodium falciparum [2]) [nM]	CC50 [3] [nM]
CC1=C(C(=O)OC(C)C)C(c2ccccc2F)C2=C(CC(c3ccc(Cl)cc3)CC2=O)N1 (centres undefined)	109	35.1	> 100000
Oc1cccc2ccc(Nc3ccccn3)nc12	679	302	8870
CCN(CC)CCCN(Cc1cc2ccc(OC)cc2[nH]c1=O)C(=S)NCc1ccccc1	3910	2410	25800
O=C(NN=CC(Br)=Cc1ccccc1)c1ccc(F)cc1	981	618	> 10000
O=C(/C=C/Nc1ccccc1NS(=O)(=O)c1ccc([N+](=O)[O-])cc1)c1ccccc1	> 1250	419	> 10000
COc1ccc(C2c3[nH]c4ccccc4c3C[C@@H]3C(=O)N(CCC(C)C)CC(=O)N23)cc1 (some centres undefined)	> 1250	1110	> 10000
CCC(C(=O)Oc1ccccc1-c1nc2ccccn2c1NC(C)(C)CC(C)(C)C)c1ccccc1 (centres undefined)	685	32.9	> 10000
CC[n+]1c(C=C2C=CN(c3ccc(Cl)cc3)C=C2)ccc2ccccc21	725	1090	> 10000
O=c1c2cnn(-c3ccccc3)c2nc(-c2ccccc2F)n1-c1ccc(Br)cc1	6790	1230	> 100000
CCc1ccccc1N1C(=O)CN(Cc2ccccc2)C1=S	> 12500	6000	78800
COc1ccc(CCN2CC(CNC(=O)Cc3cccnc3)C(c3ccc(N(C)C)cc3)C2)cc1OC (centres undefined)	997	> 306	> 10000
CCN1CC=C2C(C#N)=C(N)C(C#N)(C#N)C(c3ccc(C)s3)C2C1 (centres undefined)	> 877	> 1250	> 10000
CC(=O)N(C1=C(N2CCCCC2)C(=O)c2ccccc2C1=O)c1cccc(F)c1	146	109	23700
c1ccc(OCCOc2ccc(Nc3c4ccccc4nc4ccccc34)cc2)cc1	505	347	6120
N#Cc1c2c(c(N3CCN(Cc4ccccc4)CC3)n3c1nc1ccccc13)CCC2	311	248	> 100000
CCCCSCC(O)CN1CCCCC1 (centres undefined)	5280	534	> 100000
O=C(c1ccc(-n2c(SCc3ccc(Cl)cc3)nc3ccccc3c2=O)cc1)N1CCOCC1	> 12500	2280	> 100000
O=C(O)Cn1cnc2nc3n(c2c1=O)CCC3	> 10400	2420	> 100000
CCC(C)NC(=O)CSc1nnc(-c2cccnc2)n1-c1ccc(Cl)cc1 (centres undefined)	> 1520	> 1090	> 10000
Cc1ccc(-n2c(-c3ccccc3)cc(C=NNC(=O)c3cccc(O)c3)c2-c2ccccc2)cc1	150	139	> 100000
CCOC(=O)c1c(NC(=O)c2ccc([N+](=O)[O-])cc2[N+](=O)[O-])sc2c1CCCC2	> 12500	1040	> 100000
Cc1nnc2sc(SCc3cccc([N+](=O)[O-])c3)nn2c1=O	> 1070	942	> 13900
